Compound `CN(C)c1cc2c(cc1C(F)(F)F)NC(=O)CC(c1cccc(-c3ccccn3)c1)=N2` [Example 6, 7-Dimethylamino-4-(3-pyridin-2-yl-phenyl)-8-trifluoromethyl-1,3-dihydro-benzo[b][1,4]diazepin-2-one] came in with a melting point of 201 °C.
Next, `O=C1CC(c2cccc(-c3cccnc3)c2)=Nc2ccc(F)cc2N1` [Example 7, 8-Fluoro-4-(3-pyridin-3-yl-phenyl)-1,3-dihydro-benzo[b][1,4]diazepin-2-one]: 210 °C; `O=C1CC(c2cccc(-c3ccncc3)c2)=Nc2ccc(F)cc2N1` [Example 8, 8-Fluoro-4-(3-pyridin-4-yl-phenyl)-1,3-dihydro-benzo[b][1,4]diazepin-2-one]: 190 to 192 °C; `Cc1ccc(-c2cccc(C3=Nc4cc(N(C)C)c(C(F)(F)F)cc4NC(=O)C3)c2)cn1` [Example 10, 7-Dimethylamino-4-[3-(6-methyl-pyridin-3-yl)-phenyl]-8-trifluoromethyl-1,3-dihydro-benzo[b][1,4]diazepin-2-one]: 233 to 237 °C.
The compound `Cc1ccc(-c2cccc(C3=Nc4ccc(F)cc4NC(=O)C3)c2)cn1` [Example 11, 8-Fluoro-4-[3-(6-methyl-pyridin-3-yl)-phenyl]-1,3-dihydro-benzo[b][1,4]diazepin-2-one] had a melting point of 225 to 226 °C.
To `Cc1ccc(-c2cccc(C3=Nc4ccc(C(F)(F)F)cc4NC(=O)C3)c2)nn1` [Example 14, 4-[3-(6-Methyl-pyridazin-3-yl)-phenyl]-8-trifluoromethyl-1,3-dihydro-benzo[b][1,4]diazepin-2-one] belongs 233 °C.
`Cc1ccc(-c2cccc(C3=Nc4cc(N(C)C)c(C(F)(F)F)cc4NC(=O)C3)c2)nn1` [Example 15, 7-Dimethylamino-4-[3-(6-methyl-pyridazin-3-yl)-phenyl]-8-trifluoromethyl-1,3-dihydro-benzo[b][1,4]diazepin-2-one] registered a melting point of 174 °C.
In turn, `Cc1ncccc1-c1cccc(C2=Nc3ccc(C(F)(F)F)cc3NC(=O)C2)c1` [Example 17, 4-[3-(2-Methyl-pyridin-3-yl)-phenyl]-8-trifluoromethyl-1,3-dihydro-benzo[b][1,4]diazepin-2-one] had a melting point of 219 to 220 °C.
In the case of `Cc1ncccc1-c1cccc(C2=Nc3ccc(F)cc3NC(=O)C2)c1` [Example 18, 8-Fluoro-4-[3-(2-methyl-pyridin-3-yl)-phenyl]-1,3-dihydro-benzo[b][1,4]diazepin-2-one], the melting point lay within 219 to 220 °C.
Compound `Cc1ncccc1-c1cccc(C2=Nc3ccc(-c4ccccc4F)cc3NC(=O)C2)c1` [Example 19, 8-(2-Fluoro-phenyl)-4-[3-(2-methyl-pyridin-3-yl)-phenyl]-1,3-dihydro-benzo[b][1,4]diazepin-2-one] showed a melting point of 192 to 194 °C.
`Cc1ccc(-c2cccc(C3=Nc4cc(F)c(Cl)cc4NC(=O)C3)c2)cn1` [Example 23, 8-Chloro-7-fluoro-4-[3-(6-methyl-pyridin-3-yl)-phenyl]-1,3-dihydro-benzo[b][1,4]diazepin-2-one]: the melting point fell in the range of 215 to 220 °C.
`Cc1cc2c(cc1Cl)NC(=O)CC(c1cccc(-c3cccnc3)c1)=N2` [Example 26, 8-Chloro-7-methyl-4-(3-pyridin-3-yl-phenyl)-1,3-dihydro-benzo[b][1,4]diazepin-2-one]: the melting point stood at 229 °C.
Compound `O=C1CC(c2cccc(-c3cccnc3)c2)=Nc2ccc(-c3ccccc3F)cc2N1` [Example 29, 8-(2-Fluoro-phenyl)-4-(3-pyridin-3-yl-phenyl)-1,3-dihydro-benzo[b][1,4]diazepin-2-one] displayed a melting point of 208 to 209 °C.
`Cc1ccc(-c2cccc(C3=Nc4ccc(Cl)cc4NC(=O)C3)c2)cn1` [Example 31, 8-Chloro-4-[3-(6-methyl-pyridin-3-yl)-phenyl]-1,3-dihydro-benzo[b][1,4]diazepin-2-one] had a melting point of 230 °C.
`Cc1ncccc1-c1cccc(C2=Nc3ccc(Cl)cc3NC(=O)C2)c1` [Example 32, 8-Chloro-4-[3-(2-methyl-pyridin-3-yl)-phenyl]-1,3-dihydro-benzo[b][1,4]diazepin-2-one]: the melting point amounted to 198 °C.
Turning to `O=C1CC(c2cccc(-c3ccccn3)c2)=Nc2ccc(C(F)(F)F)cc2N1` [Example 33, 4-(3-Pyridin-2-yl-phenyl)-8-trifluoromethyl-1,3-dihydro-benzo[b][1,4]diazepin-2-one], the melting point is 226 to 227 °C.
To `O=C1CC(c2cccc(-c3cccnc3)c2)=Nc2ccccc2N1` [Example 34, 4-(3-Pyridin-3-yl-phenyl)-1,3-dihydro-benzo[b][1,4]diazepin-2-one] belongs 210 to 211 °C; to `COc1cc2c(cc1C(F)(F)F)NC(=O)CC(c1cccc(-c3ccncc3)c1)=N2` [Example 35, 7-Methoxy-4-(3-pyridin-4-yl-phenyl)-8-trifluoromethyl-1,3-dihydro-benzo[b][1,4]diazepin-2-one], 225 °C (dec.); to `COc1ccc2c(c1)NC(=O)CC(c1cccc(-c3ccncc3)c1)=N2` [Example 38, 8-Methoxy-4-(3-pyridin-4-yl-phenyl)-1,3-dihydro-benzo[b][1,4]diazepin-2-one], 193 to 196 °C.
On to `CN(C)c1cc2c(cc1-c1ccccc1F)NC(=O)CC(c1cccc(-c3ccncc3)c1)=N2` [Example 39, 7-Dimethylamino-8-(2-fluoro-phenyl)-4-(3-pyridin-4-yl-phenyl)-1,3-dihydro-benzo[b][1,4]diazepin-2-one], for which the melting point was in the range of 236 to 237 °C.
Take `COc1ccc(-c2cccc(C3=Nc4cc(N(C)C)c(C(F)(F)F)cc4NC(=O)C3)c2)nn1` [Example 40, 7-Dimethylamino-4-[3-(6-methoxy-pyridazin-3-yl)-phenyl]-8-trifluoromethyl-1,3-dihydro-benzo[b][1,4]diazepin-2-one]: the melting point turned out to be 224 °C.
Consider `CCOc1cc2c(cc1C(F)(F)F)NC(=O)CC(c1cccc(-c3ccccn3)c1)=N2` [Example 43, 7-Ethoxy-4-(3-pyridin-2-yl-phenyl)-8-trifluoromethyl-1,3-dihydro-benzo[b][1,4]diazepin-2-one], for which the melting point turned out to be 229 °C.
`O=C1CC(c2cccc(-c3ccccn3)c2)=Nc2cc(OCC(F)(F)F)c(C(F)(F)F)cc2N1` [Example 44, 4-(3-Pyridin-2-yl-phenyl)-7-(2,2,2-trifluoro-ethoxy)-8-trifluoromethyl-1,3-dihydro-benzo[b][1,4]diazepin-2-one] displayed a melting point of 214 °C.
Next, `Cc1cc2c(cc1Cl)NC(=O)CC(c1cccc(-c3ccccn3)c1)=N2` [Example 45, 8-Chloro-7-methyl-4-(3-pyridin-2-yl-phenyl)-1,3-dihydro-benzo[b][1,4]diazepin-2-one]: 222 °C (dec.); `Cc1cc2c(cc1C(F)(F)F)NC(=O)CC(c1cccc(-c3ccccn3)c1)=N2` [Example 46, 7-Methyl-4-(3-pyridin-2-yl-phenyl)-8-trifluoromethyl-1,3-dihydro-benzo[b][1,4]diazepin-2-one]: 251 to 253 °C; `Cc1cc2c(cc1C(F)(F)F)NC(=O)CC(c1cccc(-c3ccnnc3)c1)=N2` [Example 49, 7-Methyl-4-(3-pyridazin-4-yl-phenyl)-8-trifluoromethyl-1,3-dihydro-benzo[b][1,4]diazepin-2-one]: 223 °C.
Consider `COc1ccc(-c2cccc(C3=Nc4ccc(C(F)(F)F)cc4NC(=O)C3)c2)cn1` [Example 50, 4-[3-(6-Methoxy-pyridin-3-yl)-phenyl]-8-trifluoromethyl-1,3-dihydro-benzo[b][1,4]diazepin-2-one], for which the melting point lay within 210 to 215 °C.
As to `COc1ccc(-c2cccc(C3=Nc4ccc(Cl)cc4NC(=O)C3)c2)cn1` [Example 51, 8-Chloro-4-[3-(6-methoxy-pyridin-3-yl)-phenyl]-1,3-dihydro-benzo[b][1,4]diazepin-2-one], the melting point lay within 200 to 205 °C.
Next, `O=C1CC(c2cccc(-c3ccccn3)c2)=Nc2cc(F)c(Cl)cc2N1` [Example 52, 8-Chloro-7-fluoro-4-(3-pyridin-2-yl-phenyl)-1,3-dihydro-benzo[b][1,4]diazepin-2-one]: 197 to 198 °C; `COc1ccc2c(c1)N=C(c1cccc(-c3cccnc3)c1)CC(=O)N2` [Example 55, 7-Methoxy-4-(3-pyridin-3-yl-phenyl)-1,3-dihydro-benzo[b][1,4]diazepin-2-one]: 219 °C (dec.); `CCOc1ccc2c(c1)N=C(c1cccc(-c3ccnc(C)c3)c1)CC(=O)N2` [Example 59, 7-Ethoxy-4-[3-(2-methyl-pyridin-4-yl)-phenyl]-1,3-dihydro-benzo[b][1,4]diazepin-2-one]: 163 °C.
On to `CCOc1ccc2c(c1)N=C(c1cccc(-c3ccc(C)nc3)c1)CC(=O)N2` [Example 60, 7-Ethoxy-4-[3-(6-methyl-pyridin-3-yl)-phenyl]-1,3-dihydro-benzo[b][1,4]diazepin-2-one], for which the melting point stood at 173 °C.
For `CN(c1cc2c(cc1C(F)(F)F)NC(=O)CC(c1cccc(-c3cccnc3)c1)=N2)C1CC1` [Example 62, 7-(Cyclopropyl-methyl-amino)-4-(3-pyridin-3-yl-phenyl)-8-trifluoromethyl-1,3-dihydro-benzo[b][1,4]diazepin-2-one], the melting point lay within 196 to 198 °C.
In turn, `Cc1cc2c(cc1C(F)(F)F)N=C(c1cccc(-c3ccncc3)c1)CC(=O)N2` [Example 64, 8-Methyl-4-(3-pyridin-4-yl-phenyl)-7-trifluoromethyl-1,3-dihydro-benzo[b][1,4]diazepin-2-one] had a melting point of 217 °C.
Regarding `Cc1cc2c(cc1Cl)N=C(c1cccc(-c3ccncc3)c1)CC(=O)N2` [Example 66, 7-Chloro-8-methyl-4-(3-pyridin-4-yl-phenyl)-1,3-dihydro-benzo[b][1,4]diazepin-2-one], the melting point came out at 236 °C.
In turn, `Cc1cc2c(cc1C)NC(=O)CC(c1cccc(-c3ccncc3)c1)=N2` [Example 69, 7,8-Dimethyl-4-(3-pyridin-4-yl-phenyl)-1,3-dihydro-benzo[b][1,4]diazepin-2-one] gave a melting point of 231 °C.

The melting point is the temperature of the solid-liquid transition.

The record behind these values is patent publication US6949542B2, “Dihydro-benzo[b][1,4]diazepin-2-one derivatives” (Hoffman-La Roche Inc., priority 2002, dated 2005).
